From ChEMBL document CHEMBL5579867, “Ligand-Based Pharmacophoric Design and Anti-inflammatory Evaluation of Triazole Linked Semisynthetic Labdane Conjugates” (ACS Med Chem Lett, 2024)
The source made the active and inactive calls. The calls are words filed in the database; no cut-off is given here.

Experiments:
RAW264.7 [1] = test: Effect on NF-kappaB p65 protein expression in LPS-induced mouse RAW264.7 cells at 10 to 20 uM pretreated for 1 hr followed by LPS stimulation and measured after 24 hrs by Western blot analysis; type: functional, cell-based; conditions: dose 10-20 µM, time 25.0 hrs
RAW264.7 [2] = test: Inhibition of LPS-induced NF-kappaB activation in mouse RAW264.7 cells assessed as reduction in nuclear translocation pretreated for 1 hr followed by LPS stimulation and measured after 24 hrs by immunofluorescence staining based fluorescence microscopic analysis; type: cell-based; conditions: dose 10-20 µM, time 25.0 hrs
RAW264.7 [3] = test: Antiinflammatory activity in LPS-induced mouse RAW264.7 cells assessed as inhibition of IL-6 production pretreated for 1 hr followed by LPS stimulation and measured after 24 hrs by ELISA; type: functional, cell-based; conditions: dose 1-10 µM, time 25.0 hrs
RAW264.7 [4] = test: Antiinflammatory activity in LPS-induced mouse RAW264.7 cells assessed as inhibition of TNF-alpha production pretreated for 1 hr followed by LPS stimulation and measured after 24 hrs by ELISA; type: functional, cell-based; conditions: dose 1-10 µM, time 25.0 hrs
RAW264.7 [5] = test: Inhibition of LPS-induced NF-kappaB activation in mouse RAW264.7 cells assessed as inhibition of p65 phosphorylation pretreated for 1 hr followed by LPS stimulation and measured after 24 hrs by Western blot analysis; type: cell-based; conditions: dose 10-20 µM, time 25.0 hrs
RAW264.7 [6] = test: Cytotoxicity against mouse RAW264.7 cells assessed as reduction in cell viability at 1 to 20 uM incubated for 24 hrs by MTT assay; type: toxicity, cell-based; conditions: raw264.7, 24 h, dose 1-20 µM
RAW264.7 [7] = test: Antiinflammatory activity in LPS-induced mouse RAW264.7 cells assessed as increase in IL-10 production pretreated for 1 hr followed by LPS stimulation and measured after 24 hrs by ELISA; type: functional, cell-based; conditions: dose 1-10 µM, time 25.0 hrs
RAW264.7 [8] = test: Antiinflammatory activity in LPS-induced mouse RAW264.7 cells assessed as inhibition of NO production pretreated for 1 hr followed by LPS stimulation and measured after 23 hrs by Griess method; type: functional, cell-based
RAW264.7 [9] = test: Antiinflammatory activity in LPS-induced mouse RAW264.7 cells assessed as reduction in COX-2 protein expression pretreated for 1 hr followed by LPS stimulation and measured after 24 hrs by Western blot analysis; type: functional, cell-based; conditions: dose 10-20 µM, time 25.0 hrs
RAW264.7 [10] = test: Antiinflammatory activity in LPS-induced mouse RAW264.7 cells assessed as inhibition of IL-6 production at 20 uM pretreated for 1 hr followed by LPS stimulation and measured after 24 hrs by ELISA; type: functional, cell-based; conditions: time 25.0 hrs
RAW264.7 [11] = test: Antiinflammatory activity in LPS-induced mouse RAW264.7 cells assessed as inhibition of NO production at 1 to 20 uM pretreated for 1 hr followed by LPS stimulation and measured after 23 hrs by Griess method; type: functional, cell-based; conditions: dose 1-20 µM, time 24.0 hrs
RAW264.7 [12] = test: Antiinflammatory activity in LPS-induced mouse RAW264.7 cells assessed as inhibition of TNF-alpha production at 20 uM pretreated for 1 hr followed by LPS stimulation and measured after 24 hrs by ELISA; type: functional, cell-based; conditions: time 25.0 hrs
RAW264.7 [13] = test: Antiinflammatory activity in LPS-induced mouse RAW264.7 cells assessed as reduction in iNOS protein expression pretreated for 1 hr followed by LPS stimulation and measured after 24 hrs by Western blot analysis; type: functional, cell-based; conditions: dose 10-20 µM, time 25.0 hrs
[14] = Inhibition of TNF-alpha induced ICAM-1 protein expression in HUVEC cells; type: functional, cell-based; conditions: Homo sapiens
[15] = molecular target: T1, Polyunsaturated fatty acid lipoxygenase ALOX15 (Homo sapiens, UniProt P16050); test: Inhibition of LOX-15 (unknown origin)
T1 sequence (P16050 whole entry): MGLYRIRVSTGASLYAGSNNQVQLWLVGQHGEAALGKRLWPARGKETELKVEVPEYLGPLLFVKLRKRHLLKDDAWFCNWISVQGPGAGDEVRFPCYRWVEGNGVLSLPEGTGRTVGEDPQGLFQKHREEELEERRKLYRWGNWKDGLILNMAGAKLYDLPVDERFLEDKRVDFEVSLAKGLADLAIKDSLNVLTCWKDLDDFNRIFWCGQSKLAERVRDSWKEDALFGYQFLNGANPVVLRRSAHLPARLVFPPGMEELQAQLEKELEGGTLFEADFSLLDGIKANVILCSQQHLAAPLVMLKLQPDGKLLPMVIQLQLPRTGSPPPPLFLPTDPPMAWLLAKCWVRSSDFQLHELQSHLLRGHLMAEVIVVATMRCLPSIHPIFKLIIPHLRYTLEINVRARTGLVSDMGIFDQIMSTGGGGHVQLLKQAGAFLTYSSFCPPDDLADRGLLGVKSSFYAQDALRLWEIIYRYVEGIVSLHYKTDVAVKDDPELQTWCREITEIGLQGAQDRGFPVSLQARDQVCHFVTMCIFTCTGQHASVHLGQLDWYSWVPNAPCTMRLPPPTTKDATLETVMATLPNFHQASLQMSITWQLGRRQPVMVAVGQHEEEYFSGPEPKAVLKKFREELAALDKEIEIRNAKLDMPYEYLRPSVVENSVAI

Compound: C=C1CC[C@H]2C(C)(C)CCC[C@]2(C)[C@H]1C/C=C(/C=O)CC(=O)OCc1cn(CCN2C(=O)C(=O)c3ccccc32)nn1
- Activity (RAW264.7 [1]): inactive
- inhibition (RAW264.7 [2]): Dose-Dependent Effect
- Activity (RAW264.7 [3]): Dose-Dependent Effect
- Activity (RAW264.7 [4]): Dose-Dependent Effect
- inhibition (RAW264.7 [5]): Dose-Dependent Effect
- Activity (RAW264.7 [6]): Non-Toxic
- Activity (RAW264.7 [7]): Dose-Dependent Effect
- IC50 (RAW264.7 [8]): 3.13 µM
- Activity (RAW264.7 [9]): Dose-Dependent Effect
- Activity (RAW264.7 [10]): Active
- Activity (RAW264.7 [11]): Active
- Activity (RAW264.7 [12]): Active
- Activity (RAW264.7 [13]): Dose-Dependent Effect

Compound: COc1ccc(N/N=C2\C(=O)N(CCCn3cncn3)c3ccc(Br)cc32)cc1
- IC50 [14]: 20 µM

Compound: CN(C)c1ccc(/C=C/C(=O)c2cccc(-n3cc(CN4C(=O)C(=O)c5ccccc54)nn3)c2)cc1
- IC50 [15]: 1.58 µM
